Read-outs that look alike come from different tables or passages of the source.
Key:
[1] = Phase 1 study Part 1: plasma pharmacokinetics after multiple oral doses of Compound 1 as AIC (QD×6 days) in healthy subjects; format: in vivo, human; details: for AUC / concentration at 24 h / Cmax: geometric mean (geometric CV%); for AUC: read-out: AUC0-τ (τ = 24 hours); for concentration at 24 h: read-out: Cmin (plasma concentration at 24 hours postdose); for Cmax: healthy subjects
Protocol: Part 1 was an open label, multiple dose, three period, fixed sequence study to evaluate the effect of Compound 1 on JNK activity following UV irradiation.
On Day 1, after a minimum of an 8-hour fast, subjects received the first dose of Compound 1. All subjects received the following oral doses of Compound 1 in the fixed sequence below: • Treatment A: 60 mg Compound 1 as AIC, QD×6 days; • Treatment B: 160 mg Compound 1 as AIC, QD×6 days; and • Treatment C: 400 mg Compound 1 as AIC, QD×6 days.
All subjects received the following oral doses of Compound 1 as AIC: • Days 1 through 6: Treatment A: 60 mg Compound 1 AIC, QD×6 days; • Days 7 through 12: Treatment B: 160 mg Compound 1 AIC, QD×6 days; and • Days 13 through 18: Treatment C: 400 mg Compound 1 AIC, QD×6 days.
The treatments were administered in the morning following an overnight fast of at least 8 hours. All doses were administered with 240 mL of noncarbonated, room temperature water. Water was allowed as desired except for 1 hour before and 1 hour after drug administration. The first meal following the morning dose on the sixth day of each dosing period was 4 hours postdose. On all other dosing days, the next meal/snack was served after a minimum 2 hours after dosing.
Blood samples for Compound 1 plasma PK analysis were collected at the following time points on Days 6, 12, and 18: predose and 0.5, 2, 4, 6, 10, 12, and 24 hours postdose.
Concentrations of Compound 1 in plasma were measured using a validated liquid chromatography tandem mass spectrometry (LC-MS/MS) assay. In Part 2, concentrations of Compound 1 in whole blood were measured using a validated LC-MS/MS method.
Plasma and whole blood PK parameters were derived for Compound 1 by noncompartmental analysis. Actual sampling times were used in the calculation of PK parameters.
AUCτ: AUC from time zero to tau, where tau is the dosing interval.
Cmax: Maximum observed plasma concentration.
Cmin: Minimum observed plasma concentration.

[2] = tested on: UVB-induced phospho c-jun expression in skin; test: Phospho c-Jun immunohistochemistry of UVB-irradiated skin biopsies: quantitative analysis (integrated optical density); format: in vivo, human
Description: A total of four skin biopsies were taken, one at baseline and one each on the sixth day of each treatment period.
On baseline (Day −1) and on the sixth day of each dosing period (Days 6, 12, and 18), the skin test sites were delineated on the subject's upper buttock between the beltline and the natal cleft on the right side. The right side of the buttock was divided into four different test sites, one site for 2×MED irradiation at baseline and each of the three dosing periods. Each test site was a minimum of 3 cm×3 cm. Subjects received 2×MED UV irradiation at baseline (Day −1) at approximately the same time that irradiation was scheduled on Days 6, 12, and 18, which was 2 hours postdose. Eight hours after UV irradiation (±10 minutes), a skin punch biopsy was taken from the UV exposure site. The biopsies were processed into tissue slides by a third party and analyzed by immunohistochemistry (IHC). This third party was blinded to the treatment periods (baseline and doses).
Phospho-c-Jun expression in biopsies was analyzed by IHC. Phospho-c-Jun IHC data were subjectively scored on a scale of 0 to 4 based on the intensity and number of epidermal keratinocyte nuclei stained within the tissue section by trained individuals blinded to treatment. The IHC was also analyzed by automated measurement of integrated optical density.
Phospho c-Jun IHC images were analyzed at Quintiles for integrated optical density of positive nuclear staining using Aperio imaging software (Leica Biosystems). The Phospho c-jun score (Optical Density Scale) reflects the percentage of nuclei with ‘3+’ staining intensity (the cutoff for determining positive staining) as determined by the Aperio nuclear phospho c-jun quantitative image analysis algorithm.

[3] = Solubility in water and SGF (24 hours, ambient temperature, HPLC/UV); format: physicochemical; details: for solubility at 24 h: ambient temperature
Protocol: Solubility in Water and SGF: A portion of the sample was weighed into a 2 mL clear HPLC vial. […] The sample was removed from the shaker and pH measurement was performed using a calibrated pH meter. Then a portion of the sample was filtered using […] Nylon-membraned centrifuge tube filter at 14000 RPM for 5 min. The filtrate was analyzed using HPLC/UV with appropriate dilution. The filtered solid residues were analyzed using XRPD.
For solubility in SGF, the samples were prepared and assayed in the same procedures as mentioned above.

[4] = Solid state chemical stability under stress conditions (HPLC with UV detection); details: for Chemical stability (open vial, 2 weeks): HPLC/UV
Protocol: Six vials were prepared for each salt. Two samples were stored in the refrigerator. The other four samples in open vials were stored under 4 stress conditions, respectively. […] One set of samples stored in the refrigerator were used to prepare the stock and standard solutions.

[5] = human, plasma, Treatment A: 60 mg as AIC, oral QD×6 days, N=15
[6] = human, plasma, Treatment B: 160 mg as AIC, oral QD×6 days, N=15
[7] = human, plasma, Treatment C: 400 mg as AIC, oral QD×6 days, N=15
[8] = measured after 24 hours shaking

SMILES: C[C@@H]1CC[C@@H](Nc2nc(NC(C)(C)C)ncc2C(N)=O)C[C@H]1O [Compound 1, 2-(tert-butylamino)-4-((1R,3R,4R)-3-hydroxy-4-methylcyclohexylamino)-pyrimidine-5-carboxamide]
- increase of systemic exposure (AUC and Cmax) with dose ([1]; dose increased from 60 mg to 400 mg, multiple oral doses): more than dose-proportional
- half-life ([1]; human, plasma, oral, following multiple doses (60-400 mg QD), read-out: mean terminal half life): 14 to 21 h
- AUC [1, 5]: 2290 ng·h/mL
- concentration at 24 h [1, 5]: 22 ng/mL
- Tmax ([1]; human, plasma, Treatment A: 60 mg as AIC, oral QD×6 days, median (minimum, maximum), N=15, read-out: Tmax): 1.95 h
- AUC [1, 6]: 8560 ng·h/mL
- concentration at 24 h [1, 6]: 65 ng/mL
- Tmax ([1]; human, plasma, Treatment B: 160 mg as AIC, oral QD×6 days, median (minimum, maximum), N=15, read-out: Tmax): 1.95 h
- AUC [1, 7]: 31300 ng·h/mL
- concentration at 24 h [1, 7]: 212 ng/mL
- Tmax ([1]; human, plasma, Treatment C: 400 mg as AIC, oral QD×6 days, median (minimum, maximum), N=15, read-out: Tmax): 1.97 h
- Tmax ([1]; human, plasma, following single or multiple oral doses at the dose levels evaluated, postdose, read-out: median Tmax): 1 to 4 h
- Cmax ([1]; human, Treatment A: 60 mg as AIC, oral QD×6 days, plasma, N=15): 419 ng/mL
- Cmax ([1]; human, Treatment B: 160 mg as AIC, oral QD×6 days, plasma, N=15): 1460 ng/mL
- Cmax ([1]; human, Treatment C: 400 mg as AIC, oral QD×6 days, plasma, N=15): 4460 ng/mL
- change from baseline in phospho c-jun staining (integrated optical density) ([2]; 60 mg QD×6 days, biopsy 8 hours after 2×MED UVB): not decreased
- percentage of subjects with a decrease in optical density score compared to baseline ([2]; 60 mg dose (4/14)): 29%
- decrease from baseline in phospho c-jun staining (integrated optical density) ([2]; 160 mg QD×6 days, biopsy 8 hours after 2×MED UVB, p=0.18): 7.5%
- percentage of subjects with a decrease in optical density score compared to baseline ([2]; 160 mg dose (11/13)): 85%
- decrease from baseline in phospho c-jun staining (integrated optical density) ([2]; 400 mg QD×6 days, biopsy 8 hours after 2×MED UVB, p<0.0001): 29.5%
- percentage of subjects with a decrease in optical density score compared to baseline ([2]; 400 mg dose (13/13)): 100%
- inhibition of UVB-induced phospho c-jun expression in skin ([2]; 60, 160, 400 mg QD×6 days, automated quantitative image analysis): dose-dependent manner
- pH of the solubility sample in SGF [3, 8]: (pH 2.20)
- pH of the solubility sample in water [3, 8]: (pH 8.96)
- solubility at 24 h ([3]; pH 2.2, thermodynamic from solid, simulated gastric fluid without pepsin, read-out: Solubility in SGF (equiv. to free base)): 7170 µg/mL
- solubility at 24 h ([3]; pH 8.96, thermodynamic from solid, water, read-out: Solubility in water (equiv. to free base)): 18 µg/mL
- Chemical stability (open vial, 2 weeks) ([4]; 80° C./75% RH): no change
- Chemical stability (open vial, 2 weeks) ([4]; 80° C.): no change
- % Remaining at 80° C. ([4]; solid state, open vial, 80° C., 2 weeks, HPLC with UV detection): 101.8%
- % Remaining at 80° C./75% RH ([4]; solid state, open vial, 80° C./75% RH, 2 weeks, HPLC with UV detection): 100.8%
